The numbers were not newly measured in patent US9125916B2, “Methods of treating hypertrophic cardiomyopathy” (Gilead Sciences, Inc., priority 2013, dated 2015), which cites them from elsewhere.

In the data set the test system is human cardiac tissue derived from patients with symptomatic HCM. The following applies: Circulation 2013, 127 (5):575-584.

On to `COc1ccccc1OCC(O)CN1CCN(CC(=O)Nc2c(C)cccc2C)CC1` (stereo not shown) [ranolazine], for which the “effect of inhibition of late INa on electrical and mechanical abnormalities characteristic of HCM” value was “reverse multiple electrical and mechanical abnormalities characteristic of the disease”.
